In PubChem BioAssay AID1996:
Converted amounts (≈) assume the structure as drawn.

conditions: buffer; pH 7.4; 200.0 µM

Row | Compound | solubility kinetic [µg/mL]
1 | COc1ccc(C(=O)Nc2cccc(OC(=O)c3ccco3)c2)cc1 | 3.2 (≈ 9.49 µM)
2 | Cc1cccc(-n2c(C)nc3ccccc3c2=O)c1C | > 39.6
3 | Cc1ccc2cc([N+](=O)[O-])ccc2n1 | 20.5 (≈ 109 µM)
4 | CCC1CCCCN1Cc1c(O)ccc2c(=O)c(-c3ccccc3OC)coc12 (stereo not given) | 51.3 (≈ 130 µM)
5 | Cc1ccc(O)c(C(=O)c2cnc(/N=C(\N)N(C)C)nc2)c1 | 41.1 (≈ 137 µM)
6 | O/C=c1\ccc2cccc3nc(C(F)(F)F)nc1c23 | 5.5 (≈ 20.8 µM)
7 | Cc1ccc(OCCNC(=O)C(C)SCC(=O)Nc2ccc(F)cc2)cc1 (stereo not given) | 35 (≈ 89.6 µM)
8 | O=C(NN=C1CCCC1)C1COc2ccccc2O1 (stereo not given) | > 39
9 | O=C(O)CC1(CC(=O)Nc2ccccc2Br)CCCC1 | > 51
10 | COc1cc([N+](=O)[O-])ccc1NC(=S)NC(=O)CC(C)(C)C | 0.3 (≈ 0.922 µM)
11 | Cc1ccccc1NS(=O)(=O)c1cccc2nsnc12 | > 45.8
12 | Cl.O=C(CN1CCOCC1)c1ccc(Br)cc1 | > 48.1
13 | CCN(CC)S(=O)(=O)c1ccc(NCc2ccccn2)nc1 | > 48.1
14 | Cc1nc(Nc2ccccc2O)c2oc3ccccc3c2n1 | < 0.2
15 | O=[N+]([O-])c1ccc(N2CCOCC2)c2cccnc12 | > 38.9
16 | CCOC(=O)c1[nH]c(C)c(C(=O)OC)c1C | > 33.8
17 | Cc1ccc(C#N)c(SCc2cccc(Br)c2)n1 | < 0.3
18 | CCOc1ncccc1C(=O)OCC(=O)c1ccc(Br)s1 | > 55.5
19 | Cc1noc(C)c1CN1C(=O)c2cccc([N+](=O)[O-])c2C1=O | > 45.2
20 | C=CCOC(=O)C1=C(C)NC(=O)NC1c1ccc2c(c1)OCO2 (stereo not given) | 43.4 (≈ 137 µM)
21 | COCCSc1ccccc1C(=O)Nc1cc(C)cc(C)c1 | 41.2 (≈ 131 µM)
22 | CCN1C(=O)/C(=C\N2CCN(C(=O)c3ccco3)CC2)SC1=S | 1.1 (≈ 3.13 µM)
23 | COc1cccc(C=O)c1OC(=O)N1CCOCC1 | > 39.8
24 | Cc1ccc(NC(=O)COC(=O)c2cccnc2)c(C)c1 | > 42.6

Row | Compound | solubility kinetic [µg/mL]
25 | Nc1ccc(NC(=O)c2cccs2)cc1 | > 32.7
26 | CCOC(=O)C1=C(C)NC(C)=C(C(=O)OCC)C1C(=O)OCC(=O)NCc1ccccc1OC | > 71.2
27 | N#C/C(=C\c1ccc(-c2ccccc2[N+](=O)[O-])o1)C(N)=O | 2.2 (≈ 7.77 µM)
28 | CCOc1ccccc1C(=O)Nc1cc(C)ccc1NC(=O)c1ccco1 | 43.4 (≈ 119 µM)
29 | CC(NC(=O)c1cc2ccccc2oc1=O)c1ccccc1 (stereo not given) | 3.8 (≈ 13 µM)
30 | CSc1nc2c(c(=O)[nH]c(=O)n2C)n1Cc1ccc(Cl)cc1 | 1.2 (≈ 3.56 µM)
31 | CN(C(=O)c1ccccc1)c1nccnc1C#N | > 35.7
32 | Cc1ccc2[nH]c(O)c(N=O)c2c1 | > 26.4
33 | CCCC1CCC(c2ccc(/C(N)=N/O)cc2)CC1 (stereo not given) | < 0.3
34 | N#Cc1ccsc1NC(=O)CCS(=O)(=O)c1ccccc1 | 41.7 (≈ 130 µM)
35 | CC(=O)N1CCCSC1=Nc1ccccc1 | > 35.1
36 | CCn1c(=S)[nH]c2cc(S(=O)(=O)N3CCOCC3)ccc21 | 34.2 (≈ 104 µM)
37 | Cc1ccc(S(=O)(=O)N(C)c2ccc(OC(=O)c3cc(=O)[nH]c4ccccc34)cc2)cc1 | 2.7 (≈ 6.02 µM)
38 | COc1ccc(CNC(=O)CCC(=O)Nc2ccc(Cl)cc2)cc1 | 1.3 (≈ 3.75 µM)
39 | O=C(CCSCc1ccc(Cl)cc1)NCc1ccco1 | 39.5 (≈ 127 µM)
40 | COc1ccc(NC(=O)Nc2ccc3c(c2)CCC3)cc1 | < 0.3
41 | COc1ccccc1N1CCN(Cc2ccc(O)c3ncccc23)CC1 | 7.5 (≈ 21.5 µM)
42 | O=C(COc1ccc(F)cc1)NCCNC(=O)COc1ccc(F)cc1 | 11.2 (≈ 30.7 µM)
43 | Cn1cc([N+](=O)[O-])c(C(=O)N/N=C/c2ccncc2)n1 | > 41.1
44 | CCCCn1c(N)c(N(CC)C(=O)c2ccccc2C)c(=O)[nH]c1=O | 49.5 (≈ 144 µM)
45 | O=C(COC(=O)c1cccnc1Cl)NC1CCCCC1 | > 44.5
46 | COc1ccccc1/C=C/C(=O)Nc1ccc(N2CCOCC2)cc1 | 1 (≈ 2.96 µM)
47 | CC(=O)NC(Cc1c[nH]c2ccccc12)C(=O)NCCc1ccccc1 (stereo not given) | > 52.4
48 | COCCNc1nc(N)c([N+](=O)[O-])c(NCc2ccccc2)n1 | 4.9 (≈ 15.4 µM)

Row | Compound | solubility kinetic [µg/mL]
49 | CCCn1c(N)cc(=O)n(CCC)c1=O | > 31.7
50 | CC1CC(C)CN(c2ccc([N+](=O)[O-])nc2)C1 (stereo not given) | 28.6 (≈ 122 µM)
51 | CC(=O)c1ccc(N(CC(=O)Nc2cc(C)on2)S(=O)(=O)c2ccc(C)cc2)cc1 | 6.2 (≈ 14.5 µM)
52 | Cc1ccc(N2C(=O)CC(Sc3ncccn3)C2=O)cc1C (stereo not given) | 27.7 (≈ 88.4 µM)
53 | CCN(Cc1ccccc1)C(=O)c1ccc(Cl)cc1[N+](=O)[O-] | 44.5 (≈ 140 µM)
54 | Cc1ccc(Nc2ccccc2N)cc1 | 23.1 (≈ 117 µM)
55 | NC(=O)c1ccc(NC(=O)COC(=O)CCN2C(=O)c3ccccc3C2=O)cc1 | > 59.3
56 | C=CCOc1cccc(CNc2cccc(C(=O)O)c2)c1 | > 42.5
57 | COc1cccc2cc(C(=O)OCC(=O)N3CC(C)OC(C)C3)c(=O)oc12 (stereo not given) | > 56.3
58 | CC1CCCCN1S(=O)(=O)c1ccc([N+](=O)[O-])cc1 (stereo not given) | 22.5 (≈ 79.1 µM)
59 | O=C(Cn1cnc([N+](=O)[O-])c1)NCCc1ccccc1 | > 41.1
60 | CC1CCCN(C(=O)c2ccc3c(c2)OCO3)C1 (stereo not given) | > 37.1
61 | COc1ccc2c(c1OC)CN1CCc3cc4c(cc3C1C2)OCO4 (stereo not given) | 2.1 (≈ 6.19 µM)
62 | O=c1c2oc3ccccc3c2ncn1Cc1ccc(F)cc1 | 0.8 (≈ 2.72 µM)
63 | COc1ccccc1NS(=O)(=O)c1ccc(C(=O)NCC(c2cccs2)N2CCOCC2)cc1 (stereo not given) | 20 (≈ 39.9 µM)
64 | N#Cc1ccc(COC(=O)CCc2c[nH]c3ccccc23)cc1 | 3 (≈ 9.86 µM)
65 | COc1ccccc1CC(=O)Nc1cccc2ccccc12 | 2.5 (≈ 8.58 µM)
66 | O=S(=O)(c1cnc[nH]1)N1CCN(c2ccc(F)cc2)CC1 | 5.8 (≈ 18.7 µM)
67 | COc1ccccc1CCNC(=O)Cn1c(=O)oc2ccccc21 | > 49
68 | NC(=S)Nc1ccc(C(F)(F)F)cc1Cl | 33.5 (≈ 132 µM)
69 | O=C(O)CCC(=O)Nc1ccc(S(=O)(=O)Nc2nccs2)cc1 | 51.4 (≈ 145 µM)
70 | CC1(C)CC(=O)C=C(NCc2cccc(C(F)(F)F)c2)C1 | > 44.6
71 | CN1C(C)(C)CC(NC(=O)c2ccco2)CC1(C)C | > 39.7
72 | COc1ccccc1NCC(=O)c1ccc(Cl)cc1 | 4.7 (≈ 17 µM)

Row | Compound | solubility kinetic [µg/mL]
73 | CCN1C(=O)CC(NNC(=O)c2ccccc2)C1=O (stereo not given) | > 39.2
74 | CC(C)(C)c1ccc(S(=O)(=O)Nc2noc3ccccc23)cc1 | > 49.6
75 | COc1ccc(CNC(=O)c2cc3cccc(O)c3oc2=N)cc1 | 7.2 (≈ 22.2 µM)
76 | CC1CN(C(=O)Nc2ccc(F)cc2F)CC(C)O1 (stereo not given) | > 40.5
77 | O=C(NC(=S)NCCc1ccccc1)c1cccc(Cl)c1 | 0.6 (≈ 1.88 µM)
78 | Cc1ccc(C(=O)OC(C)CN2CCN(C)CC2)cc1.Cl (stereo not given) | 40.8
79 | COc1ccc(N2CCN(C(=O)CN3C(=O)NC4(CCCCC4C)C3=O)CC2)cc1 (stereo not given) | > 62.2
80 | COc1ccc(C(=O)OCC(=O)c2c[nH]c3ccccc23)c(OC)c1 | 4.5 (≈ 13.3 µM)
81 | Cc1ccccc1CN1C(=O)c2ccccc2Sc2ccc(C(=O)O)cc21 | 51.1 (≈ 136 µM)
82 | Cc1cccc(C(=O)OCC(=O)N2CCCCCC2)c1 | > 41.3
83 | Cc1ccc(C(=O)N2CCN(c3ccccn3)CC2)cc1[N+](=O)[O-] | 44.8 (≈ 137 µM)
84 | Cc1ccc(NC(=O)CCN2CCC(C(N)=O)CC2)cc1 | > 43.4
85 | COCCn1c(N)c(C(=S)NC(=O)c2cccs2)c(=O)[nH]c1=O | 34.6 (≈ 97.6 µM)
86 | COc1cc(C(=S)N2CCOCC2)cc(OC)c1OC | > 44.6
87 | COc1ccc(NC(=O)/C=C/c2ccc(OC(F)F)cc2)cn1 | 2 (≈ 6.24 µM)
88 | COc1ccc(NC(=O)C2(c3ccccc3)CCCC2)cc1 | 2.6 (≈ 8.8 µM)
89 | Cc1ccc(NC(=O)CCn2c(=O)[nH]c3ccsc3c2=O)cc1 | 8.2 (≈ 24.9 µM)
90 | CC(C)COC(=O)n1c(SCC(N)=O)nc2ccccc21 | 16.3 (≈ 53 µM)
91 | Cc1ccc(NC(=O)CCN2C(=O)NC(C)(C)C2=O)cc1F | > 46.1
92 | O=C(NCCCCc1ccccc1)c1cccc(Br)c1 | 9.6 (≈ 28.9 µM)
93 | O=C(Cc1ccccc1Cl)NC1(O)C(=O)c2ccccc2C1=O | > 49.5
94 | CNc1cc(C)nc(N2CCOCC2)n1 | > 31.2
95 | O=C(Nc1ccccc1)Nc1ccc2ccccc2n1 | < 0.2
96 | Cc1ccc(C(=O)NS(=O)(=O)c2ccc(C)cc2)cc1 | > 43.4

Row | Compound | solubility kinetic [µg/mL]
97 | Cc1c(C(=O)N2CCC[C@H]2C(N)=O)oc2c(F)cccc12 | 38.1 (≈ 131 µM)
98 | O=C(O)c1cccc(Nc2ccc3nonc3c2[N+](=O)[O-])c1 | 35.9 (≈ 120 µM)
99 | Cc1cccc(C)c1NC(=O)CN.Cl | > 32.2
100 | COc1ccc(NC(=O)Cc2ccc(C)c(C)c2)cc1Cl | 2.1 (≈ 6.91 µM)
101 | COc1ccccc1NC(=O)C(=O)N1CCCC1 | 35.3 (≈ 142 µM)
102 | COc1ccc(S(=O)(=O)NC(C)C(=O)NCc2ccncc2)cc1C (stereo not given) | 51.9 (≈ 143 µM)
103 | CCN(CC(=O)NC(C)C)C(=O)[C@@H](NC(=O)c1ccco1)C(C)C | > 50.6
104 | O=C(Nc1ccc(CN2CCOCC2)cc1)c1ccc(Cl)cc1 | 9.2 (≈ 27.8 µM)
105 | CNC(=S)Nc1ccc2nc(C)oc2c1 | > 33.2
106 | Cc1ccc(C(=O)Nc2ccccc2C(=O)Nc2ccccn2)cc1Cl | < 0.3
107 | O=C(Nc1ccc(CN2CCS(=O)(=O)CC2)cc1)c1ccc(Cl)cc1 | 4.6 (≈ 12.1 µM)
108 | O=C(Nc1ccc(C(=O)N2CCCC2)cc1)c1ccccc1[N+](=O)[O-] | 48.2 (≈ 142 µM)
109 | COc1ccccc1C(=O)NCCC(=O)N1CCCC(C(F)(F)F)C1 (stereo not given) | 52.3 (≈ 146 µM)
110 | CC(=O)Nc1ccc(SCC(=O)Nc2sccc2C#N)cc1 | 26.5 (≈ 80 µM)
111 | Cc1cccc(-c2onc3ccc(C(=O)/C=C/N(C)C)cc23)c1 | 3.3 (≈ 10.8 µM)
112 | O=C(Nc1ccc(F)cc1)Nc1ccccc1N1CCCCC1 | 0.3 (≈ 0.957 µM)
113 | O=C(COC(=O)/C=C/c1ccc(F)cc1)NC1CC1 | 28.8 (≈ 109 µM)
114 | O=C(O)c1ccc(NCc2ccc(Br)cc2)cc1 | > 45.9
115 | CC1(C)CC(=O)C=C(N2CCOCC2)C1 | > 31.4
116 | CC(=O)N(C1=NCCCS1)c1ccccc1Cl | > 40.3
117 | NC(=O)c1ccc(NC(=O)COc2cccc3ccccc23)cc1 | 1.1 (≈ 3.43 µM)
118 | Nc1nnc(SCC(=O)c2cccc([N+](=O)[O-])c2)s1 | > 44.4
119 | COC(=O)c1c(C)[nH]c(C(=O)/C=C/c2ccccc2F)c1C | 0.8 (≈ 2.66 µM)
120 | N#C/C(=C\c1ccncc1)c1ccccn1 | > 31.1
